PubChem BioAssay AID256 (DTP/NCI, 2004)
Several values for one entry are separate records, joined by “and”; a condition that tells them apart may be missing. Identical values can stand only once. Inconclusive results and toxic doses are left out.

Test system: CD2F1 mice, L1210 leukemia ip, survival T/C
Experiment: NCI In Vivo Anticancer Drug Screen. Data for tumor model L1210 Leukemia (intraperitoneal) in CD2F1 (CDF1) mice
Conditions: endpoint: mean survival time, higher = longer survival
Outline: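 Activity against a transplanted murine tumor was judged by comparing the compound group with a vehicle group. The outcome in the treated animals was divided by that in the controls.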

[1] = dose: 100.0 mg/kg/injection, schedule: Q01DX001 (ip), vehicle: saline with Tween-80
[2] = dose: 200.0 mg/kg/injection, schedule: Q01DX001 (ip), vehicle: saline with Tween-80
[3] = dose: 400.0 mg/kg/injection, schedule: Q01DX001 (ip), vehicle: saline with Tween-80

Nc1nc(/C=C/c2ccc([N+](=O)[O-])cc2)c(-c2ccc(Cl)c(Cl)c2)c(=O)[nH]1
T/C [1]: 92 % of control | T/C [2]: 89 % of control | T/C [3]: 90 % of control

C/C=C(\C)C(=O)O[C@@H]1c2cc3c(cc2-c2c(cc(OC)c(OC)c2OC)[C@@H]2C(=O)OC[C@@H]12)OCO3
T/C (dose: 1.25 mg/kg/injection, schedule: Q01DX009 (ip), vehicle: Klucel (hydroxypropylcellulose) (HPC)): 112 % of control | T/C (dose: 2.5 mg/kg/injection, schedule: Q01DX009 (ip), vehicle: Klucel (hydroxypropylcellulose) (HPC)): 106 % of control | T/C (dose: 5.0 mg/kg/injection, schedule: Q01DX009 (ip), vehicle: Klucel (hydroxypropylcellulose) (HPC)): 106 % of control | T/C (dose: 10.0 mg/kg/injection, schedule: Q01DX009 (ip), vehicle: Klucel (hydroxypropylcellulose) (HPC)): 95 % of control

COC(=O)CCC(C)C1CCC2C3C(O)CC4CC(O)CCC4(C)C3CC(O)C12C (stereo not drawn)
T/C (dose: 25.0 mg/kg/injection, schedule: Q01DX009 (ip), vehicle: saline with Tween-80): 96 % of control | T/C (dose: 50.0 mg/kg/injection, schedule: Q01DX009 (ip), vehicle: saline with Tween-80): 93 % of control | T/C (dose: 100.0 mg/kg/injection, schedule: Q01DX009 (ip), vehicle: saline with Tween-80): 95 % of control and 100 % of control

c1ccc2c(c1)sc1cc3c(cc12)CCCC3
T/C (dose: 7.9 mg/kg/injection, schedule: Q04DX003 (ip), vehicle: other): 93 % of control | T/C (dose: 15.7 mg/kg/injection, schedule: Q04DX003 (ip), vehicle: other): 93 % of control | T/C (dose: 31.3 mg/kg/injection, schedule: Q04DX003 (ip), vehicle: other): 93 % of control | T/C (dose: 62.5 mg/kg/injection, schedule: Q04DX003 (ip), vehicle: other): 93 % of control | T/C (dose: 125.0 mg/kg/injection, schedule: Q04DX003 (ip), vehicle: other): 93 % of control

COc1ccc(N2CC=C(c3ccccc3)OP2(=O)N(CCCl)CCCl)cc1 (stereo not drawn)
T/C (dose: 31.25 mg/kg/injection, schedule: Q01DX001 (ip), vehicle: saline): 102 % of control | T/C (dose: 62.5 mg/kg/injection, schedule: Q01DX001 (ip), vehicle: saline): 100 % of control | T/C (dose: 125.0 mg/kg/injection, schedule: Q01DX001 (ip), vehicle: saline): 100 % of control | T/C (dose: 250.0 mg/kg/injection, schedule: Q01DX001 (ip), vehicle: saline): 100 % of control | T/C (dose: 500.0 mg/kg/injection, schedule: Q01DX001 (ip), vehicle: saline): 100 % of control

O=C(COc1cccc(Cl)c1)NCc1ccccc1NC(=O)Nc1cccc(S(=O)(=O)F)c1
T/C [1]: 88 % of control | T/C [2]: 89 % of control | T/C [3]: 94 % of control

CCCCCCCC/C=C\CCCCCCCC(=O)OCCCCCCCC
T/C (dose: 100.0 mg/kg/injection, schedule: Q04DX002 (ip), vehicle: saline with Tween-80): 95 % of control | T/C (dose: 200.0 mg/kg/injection, schedule: Q04DX002 (ip), vehicle: saline with Tween-80): 95 % of control | T/C (dose: 400.0 mg/kg/injection, schedule: Q04DX002 (ip), vehicle: saline with Tween-80): 102 % of control

NC(=S)N/N=C/c1ccc(C(F)(F)F)cn1
T/C (dose: 12.5 mg/kg/injection, schedule: Q04DX002 (ip), vehicle: saline with Tween-80): 100 % of control and 102 % of control | T/C (dose: 13.3 mg/kg/injection, schedule: Q01DX001 (ip), vehicle: saline with Tween-80): 96 % of control | T/C (dose: 13.3 mg/kg/injection, schedule: Q01DX009 (ip), vehicle: Klucel (hydroxypropylcellulose) (HPC)): 100 % of control | T/C (dose: 13.3 mg/kg/injection, schedule: Q01DX009 (ip), vehicle: saline with Tween-80): 122 % of control | T/C (dose: 20.0 mg/kg/injection, schedule: Q01DX001 (ip), vehicle: saline with Tween-80): 100 % of control | T/C (dose: 20.0 mg/kg/injection, schedule: Q01DX009 (ip), vehicle: Klucel (hydroxypropylcellulose) (HPC)): 96 % of control | T/C (dose: 20.0 mg/kg/injection, schedule: Q01DX009 (ip), vehicle: saline with Tween-80): 171 % of control | T/C (dose: 25.0 mg/kg/injection, schedule: Q04DX002 (ip), vehicle: saline with Tween-80): 105 % of control and 107 % of control | T/C (dose: 30.0 mg/kg/injection, schedule: Q01DX001 (ip), vehicle: saline with Tween-80): 107 % of control | T/C (dose: 30.0 mg/kg/injection, schedule: Q01DX009 (ip), vehicle: Klucel (hydroxypropylcellulose) (HPC)): 106 % of control | T/C (dose: 45.0 mg/kg/injection, schedule: Q01DX001 (ip), vehicle: saline with Tween-80): 108 % of control | T/C (dose: 45.0 mg/kg/injection, schedule: Q01DX009 (ip), vehicle: saline with Tween-80): 102 % of control | T/C (dose: 50.0 mg/kg/injection, schedule: Q04DX002 (ip), vehicle: saline with Tween-80): 105 % of control | T/C (dose: 67.5 mg/kg/injection, schedule: Q01DX001 (ip), vehicle: saline with Tween-80): 111 % of control

O=C(Nc1ccc(Cl)c(C(F)(F)F)c1)Nc1c(Oc2ccc(Cl)c(Cl)c2)ccc(Cl)c1S(=O)(=O)O
T/C (dose: 12.5 mg/kg/injection, schedule: Q01DX009 (ip), vehicle: saline): 100 % of control | T/C (dose: 25.0 mg/kg/injection, schedule: Q01DX009 (ip), vehicle: saline): 98 % of control | T/C (dose: 50.0 mg/kg/injection, schedule: Q01DX009 (ip), vehicle: saline): 100 % of control
